This note sets out measurements from the NIST ThermoML archive (doi:10.1021/je800921n).

The nature of data set [1]: Molar enthalpy of transition or fusion. As to conditions: Crystal; Differential scanning calorimeter. Background: Differential scanning calorimetry records heat flow against a reference as temperature is scanned.
The conditions of data set [2]: Crystal; Differential scanning calorimeter.

Each structure is given as a SMILES string.

Regarding `O=C(O)CCCCCCCC(=O)O` [1,9-nonanedioic acid], in data set [1], the “Molar enthalpy of transition or fusion” value was 8.44 kcal/mol. In data set [2], the Normal melting temperature stood at 102.5 °C.
